Assay results reported in patent US11980596B2 (priority 2017, dated 2024).

Test system: patients with treatment-resistant depression (TRD)
Experiment: Adverse events (Example 7)
Assay type: in vivo, human
Settings: double-blind
Protocol: Adverse events were monitored throughout the study. Other safety assessments (i.e., laboratory tests, vital signs, physical examination) were performed at pre-specified time points. Vital signs, the Clinician Administered Dissociative States Scale (CADSS; Bremner, “Measurement of dissociative states with the clinician-administered dissociative states scale (CADSS)”, J. Traumatic Stress, 1998, 11(1):125-136), and the 4-item positive symptom subscale from the Brief Psychiatric Rating Scale (BPRS; Overall, “The Brief Psychiatric Rating Scale. Psychological Reports”, 1962, 10:799-812) were assessed pre-dose, at 40 minutes, and 2 hours post-dose.
Safety data were analyzed in Period 1, Period 2, double-blind, and open-label data sets, for all subjects receiving at least 1 dose of study medication.

In the case of `CN[C@]1(c2ccccc2Cl)CCCCC1=O` [esketamine, (S)-2-(2-chlorophenyl)-2-(methylamino)cyclohexanone], the “Dissociation, number of participants” value (esketamine 28 mg, N = 19) is reported as 0, the “Dissociative disorder, % of participants” value (esketamine 28 mg, N = 19) is reported as “(11) %” and the “Dissociative disorder, number of participants” value (from here on “Dissociative disorder, number”) (esketamine 28 mg, N = 19) is reported as 2. For the same compound, the “Dizziness, % of participants” value (esketamine 28 mg, N = 19) was “(21) %”, the “Dizziness, number of participants” value (esketamine 28 mg, N = 19) was 4 and the “Dysgeusia, % of participants” value (esketamine 28 mg, N = 19) was “(11) %”. For the same compound, the “Dysgeusia, number of participants” value (esketamine 28 mg, N = 19) was 2, the “Feeling abnormal, % of participants” value (esketamine 28 mg, N = 19) was “(11) %” and the “Feeling abnormal, number of participants” value (esketamine 28 mg, N = 19) was 2. For the same compound, the “Headache, % of participants” value (esketamine 28 mg, N = 19) was “(32) %”, the “Headache, number of participants” value (esketamine 28 mg, N = 19) was 6 and the “Hypersomnia, % of participants” value (esketamine 28 mg, N = 19) was “(11) %”. The “Hypersomnia, number of participants” value (esketamine 28 mg, N = 19) was 2, the “Hypertension, number of participants” value (esketamine 28 mg, N = 19) was 0 and the “Hypoesthesia oral, % of participants” value (esketamine 28 mg, N = 19) was “(5) %”. For the same compound, the “Hypoesthesia oral, number of participants” value (esketamine 28 mg, N = 19) was 1, the “Insomnia, number of participants” value (esketamine 28 mg, N = 19) was 0 and the “Nasal discomfort, number of participants” value (esketamine 28 mg, N = 19) was 0. The “Nausea, % of participants” value (esketamine 28 mg, N = 19) was “(11) %”, the “Nausea, number of participants” value (esketamine 28 mg, N = 19) was 2 and the “Oropharyngeal pain, number of participants” value (esketamine 28 mg, N = 19) was 0. For the same compound, the “Polyuria, number of participants” value (esketamine 28 mg, N = 19) was 0, the “Sedation, % of participants” value (esketamine 28 mg, N = 19) was “(5) %” and the “Sedation, number of participants” value (esketamine 28 mg, N = 19) was 1. For the same compound, the “Throat irritation, % of participants” value (esketamine 28 mg, N = 19) was “(5) %”, the “Throat irritation, number of participants” value (esketamine 28 mg, N = 19) was 1 and the “Total with events, % of participants” value (esketamine 28 mg, N = 19) was “(58) %”. For the same compound, the “Total with events, number of participants” value (esketamine 28 mg, N = 19) was 11, the “Tunnel vision, number of participants” value (esketamine 28 mg, N = 19) was 0 and the “Vertigo, % of participants” value (esketamine 28 mg, N = 19) was “(11) %”. The “Vertigo, number of participants” value (esketamine 28 mg, N = 19) was 2, the “Vision blurred, number of participants” value (esketamine 28 mg, N = 19) was 0 and the “Dissociation, % of participants” value (esketamine 56 mg, N = 20) was “(35) %”. For the same compound, the “Dissociation, number of participants” value (esketamine 56 mg, N = 20) was 7, the “Dissociative disorder, % of participants” value (esketamine 56 mg, N = 20) was “(5) %” and the “Dissociative disorder, number” value (esketamine 56 mg, N = 20) was 1. The “Dizziness, % of participants” value (esketamine 56 mg, N = 20) was “(40) %”, the “Dizziness, number of participants” value (esketamine 56 mg, N = 20) was 8 and the “Dysgeusia, % of participants” value (esketamine 56 mg, N = 20) was “(15) %”. For the same compound, the “Dysgeusia, number of participants” value (esketamine 56 mg, N = 20) was 3, the “Feeling abnormal, % of participants” value (esketamine 56 mg, N = 20) was “(5) %” and the “Feeling abnormal, number of participants” value (esketamine 56 mg, N = 20) was 1. For the same compound, the “Headache, % of participants” value (esketamine 56 mg, N = 20) was “(15) %”, the “Headache, number of participants” value (esketamine 56 mg, N = 20) was 3 and the “Hypersomnia, number of participants” value (esketamine 56 mg, N = 20) was 0. The “Hypertension, % of participants” value (esketamine 56 mg, N = 20) was “(10) %”, the “Hypertension, number of participants” value (esketamine 56 mg, N = 20) was 2 and the “Hypoesthesia oral, % of participants” value (esketamine 56 mg, N = 20) was “(20) %”. For the same compound, the “Hypoesthesia oral, number of participants” value (esketamine 56 mg, N = 20) was 4, the “Insomnia, % of participants” value (esketamine 56 mg, N = 20) was “(10) %” and the “Insomnia, number of participants” value (esketamine 56 mg, N = 20) was 2. The “Nasal discomfort, % of participants” value (esketamine 56 mg, N = 20) was “(10) %”, the “Nasal discomfort, number of participants” value (esketamine 56 mg, N = 20) was 2 and the “Nausea, % of participants” value (esketamine 56 mg, N = 20) was “(20) %”. The “Nausea, number of participants” value (esketamine 56 mg, N = 20) was 4, the “Oropharyngeal pain, % of participants” value (esketamine 56 mg, N = 20) was “(5) %” and the “Oropharyngeal pain, number of participants” value (esketamine 56 mg, N = 20) was 1. For the same compound, the “Polyuria, % of participants” value (esketamine 56 mg, N = 20) was “(10) %”, the “Polyuria, number of participants” value (esketamine 56 mg, N = 20) was 2 and the “Sedation, % of participants” value (esketamine 56 mg, N = 20) was “(10) %”. The “Sedation, number of participants” value (esketamine 56 mg, N = 20) was 2, the “Throat irritation, number of participants” value (esketamine 56 mg, N = 20) was 0 and the “Total with events, % of participants” value (esketamine 56 mg, N = 20) was “(80) %”. The “Total with events, number of participants” value (esketamine 56 mg, N = 20) was 16, the “Tunnel vision, number of participants” value (esketamine 56 mg, N = 20) was 0 and the “Vertigo, % of participants” value (esketamine 56 mg, N = 20) was “(5) %”. The “Vertigo, number of participants” value (esketamine 56 mg, N = 20) was 1, the “Vision blurred, number of participants” value (esketamine 56 mg, N = 20) was 0 and the “Dissociation, % of participants” value (esketamine 84 mg, N = 17) was “(24) %”. For the same compound, the “Dissociation, number of participants” value (esketamine 84 mg, N = 17) was 4, the “Dissociative disorder, % of participants” value (esketamine 84 mg, N = 17) was “(24) %” and the “Dissociative disorder, number” value (esketamine 84 mg, N = 17) was 4. The “Dizziness, % of participants” value (esketamine 84 mg, N = 17) was “(47) %”, the “Dizziness, number of participants” value (esketamine 84 mg, N = 17) was 8 and the “Dysgeusia, % of participants” value (esketamine 84 mg, N = 17) was “(29) %”.
